From patent publication US9266924B2, “Cyclopentapeptide derivatives and uses thereof” (TECHNISCHE UNIVERSITÄT MÜNCHEN, priority 2010, dated 2016)
Where a SMILES comes first, the peptide text is derived from it. Side-chain parts run from the residue outwards. [ ]: non-standard residue; d: D form. The star is where a group is joined. DOTA(Ga) = O=C1CN2CCN3CCN(CC(=O)*)CCN(CC2)CC(=O)[O][Ga]([O]1)[O]C(=O)C3; DOTA(In) = O=C1CN2CCN3CCN(CC(=O)*)CCN(CC2)CC(=O)[O][In]([O]1)[O]C(=O)C3; DOTA = O=C(O)CN1CCN(CC(=O)O)CCN(CC(=O)*)CCN(CC(=O)O)CC1; 2Nal = N[C@@H](Cc1ccc2ccccc2c1)C(=O)O; dNMeOrn = CN[C@H](CCCN)C(=O)O; 4Abz = Nc1ccc(C(=O)O)cc1; AEEA = NCCOCCOCC(=O)O; Ava = NCCCCC(=O)O; βAla = NCCC(=O)O

Target: T1, human-CXCR4 (Homo sapiens, UniProt P61073)
T1 construct: tested first at Jurkat cells that endogenously express the CXCR4 receptor; endogenous in cells; host or cells: Jurkat cells (whole cells in suspension)
Assay: Competition binding assay on Jurkat cells with 125I-CPCR4 as radiotracer
Conditions: IC50 (Exemplary Binding Study A), Jurkat cells, 125I-CPCR4 tracer, n=4
Method: For receptor binding assays cells may be resuspended in PBS/0.2% BSA. A total of 200 μl of the suspension containing 400,000 Jurkat cells may be incubated with 25 μl of the tracer solution (containing 3.1 kBq, approx. 0.1 nM) and 25 μl of the diluent or the competitor at different concentrations. […] After shaking for 2 h at room temperature, the incubation may be terminated by centrifugation at 1300 rpm for 5 min, Cell pellets may be washed once with cold PBS followed by a second centrifugation step. Cell bound radioactivity may be determined by using a gamma counter. Experiments may be repeated 2-3 times in triplicates. IC50 values of the compounds may be calculated by nonlinear regression using GraphPad Prism (GraphPad Prism 4.0 Software, Inc., San Diego, Calif., USA). Each data point may be the average of three determinations.
Cells were resuspended in 0.2% PBS/0.2% BSA. A total of 200 μL of the suspension containing 2×10^6 Jurkat cells/ml or 400000 cell/200 μl were incubated with 25 μL of the tracer solution (containing 100,000 cpm, approx. 0.1 nM) and 25 μL of competitor dissolved in ultra pure H2O or, if necessary, up to 20% DMSO at different concentrations. The tracer concentration was varied from 5 to 500 pM.
After 2 h at room temperature, the incubation was terminated by centrifugation at 2000 rpm for 5 min. Cell pellets were washed once with 400 μL cold PBS. Cell bound radioactivity was determined by using a gamma counter. Experiments were repeated three times in triplicates. IC50 values of the peptides were calculated by nonlinear regression using GraphPad Prism (GraphPad Prism 4.0 Software, San Diego, Calif., USA).
The cell concentration was determined with a Casy cell counter (500 cell suspension in 10 ml Casy solution (Innovartis AG, Casy technology). The desired cell suspension volume was transferred into an Eppendorf tube, centrifuged, the supernatant was discarded and the pellet was resuspended in 20 ml 0.2% PBS-BSA-buffer.
Subsequently, the tubes were placed on a shaker for 2 h (200 mot/min). Thereafter, the tubes were centrifuged for 5 min at 2000 rpm and the supernatant carefully removed. The pellets were washed with 400 μl PBS and the tubes were again centrifuged for 5 min at 2000 rpm. After the supernatant was carefully removed, the tubes were measured in a gamma counter. All data were analyzed with a suitable software package, i.e. GraphPad Prism 4 with the following parameters: Equation: Sigmoidal dose-response, Y=Bottom+(Top−Bottom)/(1+10^((Log EC50−X))); X is the logarithm of concentration; Y is the response; Y starts at bottom and goes to top with a sigmoid shape.

T1 sequence (P61073 whole entry): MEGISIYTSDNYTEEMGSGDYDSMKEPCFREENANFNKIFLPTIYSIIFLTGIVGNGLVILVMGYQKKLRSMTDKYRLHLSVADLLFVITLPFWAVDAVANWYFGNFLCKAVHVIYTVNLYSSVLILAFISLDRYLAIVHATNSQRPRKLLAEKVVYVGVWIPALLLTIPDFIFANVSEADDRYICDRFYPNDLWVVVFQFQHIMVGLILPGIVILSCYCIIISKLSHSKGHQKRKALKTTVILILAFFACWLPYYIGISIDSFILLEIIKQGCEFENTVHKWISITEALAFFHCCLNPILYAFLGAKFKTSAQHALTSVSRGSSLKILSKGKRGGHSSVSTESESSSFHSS

Compound | IC50
CN1C(=O)[C@@H](Cc2ccc(O)cc2)NC(=O)CNC(=O)[C@H](Cc2ccc3ccccc3c2)NC(=O)[C@H](CCCNC(=N)N)NC(=O)[C@H]1CCCNC(=O)c1ccc(CNC(=O)CN2CCN(CC(=O)O)CCN(CC(=O)O)CCN(CC(=O)O)CC2)cc1 (single isomer, unassigned) [Compound 9, yorn′(AMBS, DOTA, Ga)RNalG] | 4.78 ± 0.73 nM

Same assay, conditions: IC50 [nM] (Binding Data), Jurkat cells, 125I-CPCR4 tracer, 2 h at room temperature

Compound | IC50
CN1C(=O)[C@@H](Cc2ccc(O)cc2)NC(=O)CNC(=O)[C@H](Cc2ccc3ccccc3c2)NC(=O)[C@H](CCCNC(=N)N)NC(=O)[C@H]1CCCNC(=O)c1ccc(CNC(=O)CN2CCN(CC(=O)O)CCN(CC(=O)O)CCN(CC(=O)O)CC2)cc1 (single isomer, unassigned) [Compound 9, yorn′(AMBS, DOTA, Ga)RNalG] | 7 ± 4.25 nM

Same assay, conditions: Jurkat cells, 125I-CPCR4 tracer, 2 h at room temperature; read-out: IC50 [nM] (Binding Data)

Compound | IC50
CN1C(=O)[C@@H](Cc2ccc(O)cc2)NC(=O)CNC(=O)[C@H](Cc2ccc3ccccc3c2)NC(=O)[C@H](CCCNC(=N)N)NC(=O)[C@H]1CCCNC(=O)c1ccc(NC(=O)CN2CCN(CC(=O)O)CCN(CC(=O)O)CCN(CC(=O)O)CC2)cc1 (single isomer, unassigned) [Compound 13, yorn′(ABS, DOTA, Ga)RNalG] | 11.5 ± 4.4 nM
CN1C(=O)[C@@H](Cc2ccc(O)cc2)NC(=O)CNC(=O)[C@H](Cc2ccc3ccccc3c2)NC(=O)[C@H](CCCNC(=N)N)NC(=O)[C@H]1CCCNC(=O)c1ccc(NC(=O)CCNC(=O)CN2CCN(CC(=O)O)CCN(CC(=O)O)CCN(CC(=O)O)CC2)cc1 [Compound 1, yorn′(ABS, betaAla, DOTA)RNalG] (cyclo([dY][dNMeOrn]([4Abz-βAla-DOTA])R[2Nal]G)) | 37.6 ± 14.7 nM
CN1C(=O)[C@@H](Cc2ccc(O)cc2)NC(=O)CNC(=O)[C@H](Cc2ccc3ccccc3c2)NC(=O)[C@H](CCCNC(=N)N)NC(=O)[C@H]1CCCNC(=O)c1ccc(NC(=O)CNC(=O)CN2CCN(CC(=O)O)CCN(CC(=O)O)CCN(CC(=O)O)CC2)cc1 [Compound 10, yorn′(ABS, G, DOTA)RNalG] | 88.8 ± 18.4 nM
CN1C(=O)[C@@H](Cc2ccc(O)cc2)NC(=O)CNC(=O)[C@H](Cc2ccc3ccccc3c2)NC(=O)[C@H](CCCNC(=N)N)NC(=O)[C@H]1CCCNC(=O)c1ccc(NC(=O)CN2CCN(CC(=O)O)CCN(CC(=O)O)CCN(CC(=O)O)CC2)cc1 [Compound 15, yorn′(ABS, DOTA)RNalG] | 335 nM
CN1C(=O)[C@@H](Cc2ccc(O)cc2)NC(=O)CNC(=O)[C@H](Cc2ccc3ccccc3c2)NC(=O)[C@H](CCCNC(=N)N)NC(=O)[C@H]1CCCNC(=O)c1ccc(NC(=O)CN2CCN3CCN4CCN(CC2)CC(=O)[O][In]([O]C(=O)C3)[O]C(=O)C4)cc1 [Compound 16, yorn′(ABS, DOTA, In)RNalG] (cyclo([2Nal]G[dY][dNMeOrn]([4Abz-DOTA(In)])R)) | 105 nM
CN1C(=O)[C@@H](Cc2ccc(O)cc2)NC(=O)CNC(=O)[C@H](Cc2ccc3ccccc3c2)NC(=O)[C@H](CCCNC(=N)N)NC(=O)[C@H]1CCCNC(=O)c1ccc(NC(=O)CN2CCN3CCN4CCN(CC2)CC(=O)[O][Ga]([O]C(=O)C3)[O]C(=O)C4)cc1 [Compound 17, yorn′(ABS, DOTA, Ga)RNalG] (cyclo([2Nal]G[dY][dNMeOrn]([4Abz-DOTA(Ga)])R)) | 11.5 ± 4.4 nM
CN1C(=O)[C@@H](Cc2ccc(O)cc2)NC(=O)CNC(=O)[C@H](Cc2ccc3ccccc3c2)NC(=O)[C@H](CCCNC(=N)N)NC(=O)[C@H]1CCCNC(=O)c1ccc(NC(=O)CCCCNC(=O)CN2CCN(CC(=O)O)CCN(CC(=O)O)CCN(CC(=O)O)CC2)cc1 [Compound 18, yorn′(ABS, AVS, DOTA)RNalG] | 121 ± 17 nM
CN1C(=O)[C@@H](Cc2ccc(O)cc2)NC(=O)CNC(=O)[C@H](Cc2ccc3ccccc3c2)NC(=O)[C@H](CCCNC(=N)N)NC(=O)[C@H]1CCCNC(=O)CN1CCN2CCN3CCN(CC1)CC(=O)[O][In]([O]C(=O)C2)[O]C(=O)C3 [Compound 20, yorn′(DOTA, In)RNalG] (cyclo([2Nal]G[dY][dNMeOrn](DOTA(In))R)) | > 1000 nM
CN1C(=O)[C@@H](Cc2ccc(O)cc2)NC(=O)CNC(=O)[C@H](Cc2ccc3ccccc3c2)NC(=O)[C@H](CCCNC(=N)N)NC(=O)[C@H]1CCCNC(=O)CN1CCN2CCN3CCN(CC1)CC(=O)[O][Ga]([O]C(=O)C2)[O]C(=O)C3 [Compound 21, yorn′(DOTA, Ga)RNalG] (cyclo([2Nal]G[dY][dNMeOrn](DOTA(Ga))R)) | 289 nM
CN1C(=O)[C@@H](Cc2ccc(O)cc2)NC(=O)CNC(=O)[C@H](Cc2ccc3ccccc3c2)NC(=O)[C@H](CCCNC(=N)N)NC(=O)[C@H]1CCCNC(=O)CCCCNC(=O)CCCCNC(=O)CN1CCN2CCN3CCN(CC1)CC(=O)[O][In]([O]C(=O)C2)[O]C(=O)C3 [Compound 23, yorn′(AVS, AVS, DOTA, In)RNalG] (cyclo([2Nal]G[dY][dNMeOrn]([Ava-Ava-DOTA(In)])R)) | 123 ± 25 nM
CN1C(=O)[C@@H](Cc2ccc(O)cc2)NC(=O)CNC(=O)[C@H](Cc2ccc3ccccc3c2)NC(=O)[C@H](CCCNC(=N)N)NC(=O)[C@H]1CCCNC(=O)CCCCNC(=O)CCCCNC(=O)CN1CCN2CCN3CCN(CC1)CC(=O)[O][Ga]([O]C(=O)C2)[O]C(=O)C3 [Compound 24, yorn′(AVS, AVS, DOTA, Ga)RNalG] (cyclo([2Nal]G[dY][dNMeOrn]([Ava-Ava-DOTA(Ga)])R)) | 89.7 ± 18.3 nM
CN1C(=O)[C@@H](Cc2ccc(O)cc2)NC(=O)CNC(=O)[C@H](Cc2ccc3ccccc3c2)NC(=O)[C@H](CCCNC(=N)N)NC(=O)[C@H]1CCCNC(=O)CNC(=O)COCCOCCNC(=O)CN1CCN2CCN3CCN(CC1)CC(=O)[O][In]([O]C(=O)C2)[O]C(=O)C3 [Compound 26, yorn′(G, Trigas, DOTA, In)RNalG] (cyclo([2Nal]G[dY][dNMeOrn]([Gly-AEEA-DOTA(In)])R)) | 457 nM
yorn′(ABS, betaAla, DOTA, In)RNalG [Compound 4] | 30.4 ± 3.68 nM

Same assay, conditions: read-out: IC50 [nM] (Binding Data)

Compound | IC50
CN1C(=O)[C@@H](Cc2ccc(O)cc2)NC(=O)CNC(=O)[C@H](Cc2ccc3ccccc3c2)NC(=O)[C@H](CCCNC(=N)N)NC(=O)[C@H]1CCCNC(=O)c1ccc(CNC(=O)CN2CCN(CC(=O)O)CCN(CC(=O)O)CCN(CC(=O)O)CC2)cc1 (single isomer, unassigned) [Compound 8, yorn′(AMBS, DOTA, In)RNalG] | 44.9 ± 10.4 nM
CN1C(=O)[C@@H](Cc2ccc(O)cc2)NC(=O)CNC(=O)[C@H](Cc2ccc3ccccc3c2)NC(=O)[C@H](CCCNC(=N)N)NC(=O)[C@H]1CCCNC(=O)c1ccc(NC(=O)CCCCCNC(=O)CN2CCN(CC(=O)O)CCN(CC(=O)O)CCN(CC(=O)O)CC2)cc1 [Compound 14, yorn′(ABS, Ahx, DOTA)RNalG] | > 1000 nM
